Earlier results, collected in US20100099775A1, “METHOD FOR AMELIORATING OF POST-ANESTHETIC RECOVERY” (ALPHARX INC., priority 2008, published 2010).

Columns and labels:
[1] = test system: cultured cortical neurons; details: also when applied 30 min after the NMDA pulse
[2] = test system: patients with cerebrovascular disease; details: 90 mg daily; nine patients
patients = details: 5 mg/kg daily for 4-9 months; three patients
[3] = test system: Friedreich's Ataxia patients; details: oral 5 mg/kg daily for 8 weeks

Solubility in fixed oils (fixed oils (soy, corn, almond, etc.)): low
water solubility (water): Low
Structure (SMILES): COC1=C(OC)C(=O)C(CCCCCCCCCCO)=C(C)C1=O [Idebenone, 2,3-dimethoxy-5-methyl-6-(10-hydroxydecyl)-1,4 benzoquinone]
protection of cortical neurons against necrotic degeneration [1]: rescued cortical neurons
EEG and clinical symptoms [2]: improvements
left ventricular enlargement (patients): reduction
marker of oxidative DNA damage [3]: significantly decreased
